# From patent US7511145B2 (Genelabs Technologies, Inc., priority 2003, dated 2009)
# Biological target: T1, HCV-NS5b (Hepatitis C virus genotype 1b, UniProt Q9WMX2)
# T1 construct: (His)6 (C); made in house; host or cells: XL-1 cells (E. coli), IPTG-inducible plasmid, nickel-NTA purification
# Test: HCV-NS5b enzyme assay (incorporation of radiolabeled UTP)
# Format: biochemical
# Conditions: for inhibition at 33 µM: enzyme inhibition at compound concentration of 33 uM; for inhibition at 100 µM: read-out: % inh@100, enzyme inhibition at compound concentration of 100 uM
# Procedure, shortened: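 Percent inhibition, background-corrected against uninhibited control, was measured at 100 and 33 uM compound. Incorporation of [3H]-UTP (10 μM each NTP) into biotinylated HCV-template RNA, 37° C for 2 h, pH 7.5, scintillation proximity. Enzyme: C-terminally truncated (21 aa), His6-tagged NS5b from XL-1.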
Structure (SMILES),inhibition at 33 µM [%],inhibition at 100 µM [%]
"Cc1onc(-c2ccc(Cl)cc2)c1-c1ccc2cc(-c3nc4cc(C(=O)O)ccc4n3C3CCCCC3)ccc2n1 [Compound 396, 2-{2-[3-(4-chloro-phenyl)-5-methyl-isoxazol-4-yl]-quinolin-6-yl}-1-cyclohexyl-1H-benzoimidazole-5-carboxylic acid]",100,100
"Cc1cc(-c2nc3cc(C(=O)O)ccc3n2C2CCCCC2)cc2ccc(-c3ccccc3)nc12 [Compound 397, 1-Cyclohexyl-2-(8-methyl-2-phenyl-quinolin-6-yl)-1H-benzoimidazole-5-carboxylic acid]",95.6,99.3
"O=C(O)c1ccc2c(c1)nc(-c1ccc3nc(-c4ccccc4)cc(NCCCCO)c3c1)n2C1CCCCC1 [Compound 398, 1-cyclohexyl-2-[4-(4-hydroxy-butylamino)-2-phenyl-quinolin-6-yl]-1H-benzoimidazole-5-carboxylic acid]",59.6,92
"CC(C)(C)OC(=O)NCCNc1cc(-c2ccccc2)nc2ccc(-c3nc4cc(C(=O)O)ccc4n3C3CCCCC3)cc12 [Compound 399, 2-[4-(2-tert-butoxycarbonylamino-ethylamino)-2-phenyl-quinolin-6-yl]-1-cyclohexyl-1H-benzoimidazole-5-carboxylic acid]",95.6,102
"COc1ccc(-c2ccc(N(C)C)cc2)c(-c2ccc3cc(-c4nc5cc(C(=O)O)ccc5n4C4CCCCC4)ccc3n2)c1 [Compound 401, 1-cyclohexyl-2-[2-(4′-dimethylamino-4-methoxy-biphen-2-yl)-quinolin-6-yl]-1H-benzoimidazole-5-carboxylic acid]",100,101
"COc1ccc(-c2ccc(Cl)c(Cl)c2)c(-c2ccc3cc(-c4nc5cc(C(=O)O)ccc5n4C4CCCCC4)ccc3n2)c1 [Compound 403, 1-cyclohexyl-2-[2-(3′,4′-dichloro-4-methoxy-biphen-2-yl)-quinolin-6-yl]-1H-benzoimidazole-5-carboxylic acid]",99.4,99.9
"CCOc1ccc([N+](=O)[O-])cc1-c1ccc2cc(-c3nc4cc(C(=O)O)ccc4n3C3CCCCC3)ccc2n1 [Compound 404, 1-cyclohexyl-2-[2-(2-ethoxy-5-nitro-phenyl)-quinolin-6-yl]-1H-benzoimidazole-5-carboxylic acid]",102,101
"O=C(O)c1ccc2c(c1)nc(-c1ccc3ccc(-c4ccccc4)nc3c1)n2C1CCCCC1 [Compound 405, 1-Cyclohexyl-2-(2-phenyl-quinolin-7-yl)-1H-benzoimidazole-5-carboxylic acid]",90.5,98.9
"O=C(O)c1ccc2c(c1)nc(-c1ccc3nc(-c4ccccc4)c(-c4ccccc4)nc3c1)n2C1CCCCC1 [Compound 406, 1-Cyclohexyl-2-(2,3-diphenylquinoxalin-6-yl)-1H-benzimidazole-5-carboxylic acid]",97.3,98.1
"O=C(O)c1ccc2c(c1)nc(-c1cc3ccc(-c4ccccc4-c4ccc(Cl)cc4)nc3cc1F)n2C1CCCCC1 [Compound 408, 2-[2-(4′-Chloro-biphen-2-yl)-7-fluoro-quinolin-6-yl]-1-cyclohexyl-1H-benzoimidazole-5-carboxylic acid]",99.3,98.9
"O=C(O)c1ccc2c(c1)nc(-c1ccc3nc(-c4ccc(F)cc4)c(-c4ccc(F)cc4)nc3c1)n2C1CCCCC1 [Compound 409, 2-[2,3-Bis-(4-fluorophenyl)quinoxalin-6-yl]-1-cyclohexyl-1H-benzimidazole-5-carboxylic acid]",97.9,99.9
O=C(c1ccc2c(c1)nc(-c1cc3ccc(-c4ccccc4-c4ccccc4)nc3cc1F)n2C1CCCCC1)N1CCC(O)CC1 [Compound 410],84.3,88.6
"O=C(O)c1ccc2c(c1)nc(-c1ccc3nc(-c4cc5cccc(O)c5o4)ccc3c1)n2C1CCCCC1 [Compound 411, 1-cyclohexyl-2-[2-(7-hydroxy-benzofuran-2-yl)-quinolin-6-yl]-1H-benzoimidazole-5-carboxylic acid]",78.1,91.5
"O=C(O)c1ccc2c(c1)nc(-c1ccc3nc(-c4ccc5c(c4)OCO5)ccc3c1)n2C1CCCCC1 [Compound 412, 2-(2-benzo[1,3]dioxol-5-yl-quinolin-6-yl)-1-cyclohexyl-1H-benzoimidazole-5-carboxylic acid]",98.4,100
"O=C(O)c1ccc2c(c1)nc(-c1ccc3nc(-c4cc5ccccc5o4)ccc3c1)n2C1CCCCC1 [Compound 413, 2-(2-benzofuran-2-yl-quinolin-6-yl)-1-cyclohexyl-1H-benzoimidazole-5-carboxylic acid]",95.5,100
"O=C(O)c1ccc2c(c1)nc(-c1ccc3nc(-c4cccc(OCCCN5CCCC5)c4)ccc3c1)n2C1CCCCC1 [Compound 414, 1-Cyclohexyl-2-{2-[3-(3-pyrrolidin-1-yl-propoxy)-phenyl]-quinolin-6-yl}-1H-benzoimidazole-5-carboxylic acid]",93.4,96.8
"O=C(O)c1ccc(-c2ccc(Cl)cc2)c(-c2ccc3cc(-c4nc5cc(C(=O)O)ccc5n4C4CCCCC4)ccc3n2)c1 [Compound 415, 2-[2-(4-Carboxy-4′-chloro-biphen-2-yl)-quinolin-6-yl]-1-cyclohexyl-1H-benzoimidazole-5-carboxylic acid]",101,102
"Cc1nc(-c2ccc(Cl)cc2)sc1-c1ccc2cc(-c3nc4cc(C(=O)O)ccc4n3C3CCCCC3)ccc2n1 [Compound 416, 2-{2-[2-(4-chloro-phenyl)-4-methyl-thiazol-5-yl]-quinolin-6-yl}-1-cyclohexyl-1H-benzoimidazole-5-carboxylic acid]",101,103
"Cc1cc(-c2nc3cc(C(=O)O)ccc3n2C2CCCCC2)cc2ccc(-c3ccccc3-c3ccc(Cl)cc3)nc12 [Compound 417, 2-[2-(4′-Chloro-biphen-2-yl)-8-methyl-quinolin-6-yl]-1-cyclohexyl-1H-benzoimidazole-5-carboxylic acid]",97.8,98
"Cc1cc(-c2ccc3cc(-c4nc5cc(C(=O)O)ccc5n4C4CCCCC4)ccc3n2)c(O)c([N+](=O)[O-])c1 [Compound 418, 1-cyclohexyl-2-[2-(2-hydroxy-5-methyl-3-nitro-phenyl)-quinolin-6-yl]-1H-benzoimidazole-5-carboxylic acid]",104,103
"COc1ccc(-c2ccc(C(=O)N3CCCC3)cc2-c2ccc3cc(-c4nc5cc(C(=O)O)ccc5n4C4CCCCC4)ccc3n2)cc1OC [Compound 419, 1-Cyclohexyl-2-{2-[3′,4′-dimethoxy-4-(pyrrolidine-1-carbonyl)biphen-2-yl]quinolin-6-yl}-1H-benzimidazole-5-carboxylic acid]",101,101
"COc1ccc(-c2cccc([N+](=O)[O-])c2)c(-c2ccc3cc(-c4nc5cc(C(=O)O)ccc5n4C4CCCCC4)ccc3n2)c1 [Compound 420, 1-cyclohexyl-2-[2-(4-methoxy-3′-nitro-biphen-2-yl)-quinolin-6-yl]-1H-benzoimidazole-5-carboxylic acid]",98.3,98.3
"COc1ccc(-c2ccc(C(=O)O)cc2)c(-c2ccc3cc(-c4nc5cc(C(=O)O)ccc5n4C4CCCCC4)ccc3n2)c1 [Compound 421, 2-[2-(4′-carboxy-4-methoxy-biphen-2-yl)-quinolin-6-yl]-1-cyclohexyl-1H-benzoimidazole-5-carboxylic acid]",100,100
"COc1ccc(-c2cccc(Cl)c2)c(-c2ccc3cc(-c4nc5cc(C(=O)O)ccc5n4C4CCCCC4)ccc3n2)c1 [Compound 422, 2-[2-(3′-chloro-4-methoxy-biphen-2-yl)-quinolin-6-yl]-1-cyclohexyl-1H-benzoimidazole-5-carboxylic acid]",98.8,99.2
"O=C(O)c1ccc2c(c1)nc(-c1ccc3nc(-c4ccnc5ccccc45)ccc3c1)n2C1CCCCC1 [Compound 423, 2-[2,4′]biquinolinyl-6-yl-1-cyclohexyl-1H-benzoimidazole-5-carboxylic acid]",102,102
"O=C(O)c1ccc2c(c1)nc(-c1ccc3nc(-c4ccccc4Br)c(-c4ccccc4)cc3c1)n2C1CCCCC1 [Compound 424, 2-[2-(2-Bromo-phenyl)-3-phenyl-quinolin-6-yl]-1-cyclohexyl-1H-benzoimidazole-5-carboxylic acid]",98.7,99.1
"COc1cccc(-c2nc3ccc(-c4nc5cc(C(=O)O)ccc5n4C4CCCCC4)cc3nc2-c2cccc(OC)c2)c1 [Compound 425, 2-[2,3-Bis-(3-methoxyphenyl)quinoxalin-6-yl]-1-cyclohexyl-1H-benzimidazole-5-carboxylic acid]",96.2,98.2
"Cc1nc(C)c(-c2ccc3cc(-c4nc5cc(C(=O)O)ccc5n4C4CCCCC4)ccc3n2)s1 [Compound 426, 1-cyclohexyl-2-[2-(2,4-dimethyl-thiazol-5-yl)-quinolin-6-yl]-1H-benzoimidazole-5-carboxylic acid]",96.6,102
"O=C(O)c1ccc2c(c1)nc(-c1ccc3nc(-c4ccccn4)ccc3c1)n2C1CCCCC1 [Compound 427, 1-cyclohexyl-2-(2-pyridin-2-yl-quinolin-6-yl)-1H-benzoimidazole-5-carboxylic acid]",93.8,98.4
